According to patent publication US20170342499A1, “GENOMIC CLASSIFIER THAT PREDICTS RESPONSE TO MULTI-KINASE INHIBITOR TREATMENT INTRODUCTION” (Centre Léon-Bérard, priority 2014, published 2017):

What was measured:
CRC = assay: Response to conventional chemotherapy versus SUMSCAN prediction in CRC patients; format: in vivo, human; conditions: CRC patients (n = 21)
[1] = system: imatinib and sunitinib refractory gastrointestinal stromal tumors (GIST); conditions: cited from earlier work
[2] = system: pretreated metastatic colorectal cancer (mCRC); conditions: cited from earlier work

SMILES | patients resistant to the chemotherapy regimen, n (% of 21) (CRC; SUMSCAN Predicted Resistant) | patients sensitive to the chemotherapy regimen, n (% of 21) (CRC; SUMSCAN Predicted Resistant) | patients resistant to the chemotherapy regimen, n (% of 21) (CRC; SUMSCAN Predicted Sensitive) | patients sensitive to the chemotherapy regimen, n (% of 21) (CRC; SUMSCAN Predicted Sensitive) | patients resistant to the chemotherapy regimen, n (% of 21) (CRC; Total) | patients sensitive to the chemotherapy regimen, n (% of 21) (CRC; Total) | antitumor activity by nature of the KIT/or PDGFRA mutation ([1]; GIST) | improvement in PFS ([1]; imatinib and sunitinib refractory GIST) | improvement in PFS [2]
CCc1c2c(nc3ccc(OC(=O)N4CCC(N5CCCCC5)CC4)cc13)-c1cc3c(c(=O)n1C2)COC(=O)[C@]3(O)CC [Irinotecan] | 2 (9.5%) | 7 (33.3%) | 3 (14.3%) | 9 (42.9%) | 5 (23.8%) | 16 (76.2%) |  |  | 
O=C1[O][Pt]2([NH][C@@H]3CCCC[C@H]3[NH]2)[O]C1=O [Oxaliplatin] | 2 (9.5%) | 7 (33.3%) | 6 (28.6%) | 6 (28.6%) | 8 (38.1%) | 13 (61.9%) |  |  | 
CNC(=O)c1cc(Oc2ccc(NC(=O)Nc3ccc(Cl)c(C(F)(F)F)c3)c(F)c2)ccn1 [Regorafenib] |  |  |  |  |  |  | observed at the same level regardless of the nature of the KIT/or PDGFRA mutation | 4 months | 0.9 weeks
